Results taken from patent US7098195B2, “Fluorinated glucosamine analogs useful for modulating post-translational glycosylations on cells” (Health Research, Inc., priority 2001, dated 2006).
Read-outs that look alike come from different tables or passages of the source.

What was measured:
[1] = tested on: P-selectin ligand activity of CLA+ T-lymphocytes; test: Parallel-plate flow chamber, CLA+ T-cell tethering and rolling on P-selectin chimera; type: cell-based, human
Description: (§1) To analyze the affects of 4-F-GlcNAc on the function of CLA on human T-cells, we examined the ability of 4-F-GlcNAc-treated (0.05, 0.1, 0.5 mM for 30 hrs) CLA-+ T-cells cultures to engage with immobilized E- and P-selectin chimera in the parallel-plate flow chamber. As described for flow cytometric analyses (Example 13), cells were first pretreated with neuraminidase to remove terminal sialic acid residues required for HECA-452 reactivity and for E- and P-selectin ligand activity of CLA. This approach allowed for the assessment on de novo synthesized CLA molecules.
(§2) Tethering and rolling of human T-cells on recombinant human E- and P-selectin-Ig chimera (provided by Dr. Robert Fuhlbrigge, Harvard Medical School) and human L-selectin-Ig (gift from Dr. Ray Camphausen, Wyeth/Genetics Institute, Inc., Cambridge, Mass.) were analyzed in the parallel-plate flow chamber under physiologic shear stress conditions (3). To prepare E- and P-selectin-Ig chimera spots, protein A (300 μg/15 μl 0.1M NaHCO3) was adsorbed to Ten-twenty-nine™ Petri dishes for 2 h at 37° C. Human serum albumin ([…] PBS) then added and incubated for 2 h at 37° C. to block non-specific binding sites. E-selectin-Ig (50 ng/50 μl PBS) or P-selectin-Ig (50 ng/50 μl PBS) solutions was pipetted directly over the pre-existing protein A spots for 18 h at 4° C. To prepare L-selectin-Ig spots, L-selectin-Ig (300 ng/15 μl PBS) or isotype control human IgG (300 ng/15 μl) were adsorbed directly to plastic (non-protein A-coated) for 18 h at 4° C. and blocked in 100% FBS for 2 h at 4° C.
(§3) CLA^+ T-cells or freshly isolated PBL were treated with neuraminidase and metabolic glycosylation inhibitors or with protease (bromelain) as described above, washed twice in HBSS, suspended at 2×10^6/ml in HBSS/10 mM HEPES/2 mM CaCl2 (H/H/Ca^++) and infused into the chamber over selectin chimeras. Protease treatment was performed to control for residual E-selectin activity not attributable to the expression of CLA on a protein scaffold. Cell tethering was permitted at 0.6 dynes/cm^2 for 1 min, then stepwise increments in shear stress every 15 sec were employed to a final shear stress level of 60 dynes/cm^2. The number of cells rolling/viewing field (at 100× magnification) was quantified at each level of shear stress in triplicates for a minimum of three experiments. […] Negative control experiments were performed in parallel, wherein cell binding was examined in H/H adhesion assay medium containing 5 mM EDTA as well as assaying cell binding to human IgG isotype control.
(§4) Utilizing the parallel-plate flow chamber under physiologic shear stress conditions, E-, P- and L-selectin ligand activities of human CLA^+ T-cells treated were analyzed in an identical manner as cells prepared for Western blotting and autoradiography studies.

[2] = tested on: E-selectin ligand activity of CLA+ T-lymphocytes; test: Parallel-plate flow chamber, CLA+ T-cell tethering and rolling on E-selectin chimera; type: cell-based, human
Description: as §1, §2, §3, §4

[3] = tested on: L-selectin ligand activity of human CLA+ T-cells; test: Parallel-plate flow chamber, CLA+ T-cell rolling on L-selectin chimera; type: cell-based
Description: as §2, §3, §4

[4] = tested on: P-selectin ligand activity of murine Th1 cells; test: Flow chamber analysis of P-selectin binding on murine Th1 cells; type: cell-based, mouse
Excerpt: CD4+ splenocytes were isolated from C57BL-6 mice by anti-murine CD4 L3T4 magnetic bead technology (Miltenyi Biotec) according to manufacturer's protocol. […] Culturing murine T helper cells in the presence of murine IL-12 and anti-murine IL-4 produces selectin binding Th1 cells by up-regulating FucTVII (69, 70) and core 2 enzyme (43–45, 71, 72), both critical for selectin ligand synthesis (i.e. decoration of PSGL-1 (67, 68)), and prevents the production of non-selectin binding Th2 cells (67–72). Th1 cells were also generated from mice deficient in α1,3 fucosyltransferase, FucTVII, and served as negative controls (33, 38, 40). Cells were harvested and re-plated at 2×10^6cells/ml on non-Ab coated plastic with murine IL-2 (20 ng/ml) in the presence or absence of murine IL-12 (10 ng/ml) and anti-murine IL-4 moAb 11B11 (10 μg/ml) for 48 h. […] Glycosylation inhibitors were added to cultures on day 6.5 for 30 hr, after first treating cells with neuraminidase (0.1 U/ml for 1 hr at 37° C.) to remove all cell surface terminal sialic acid resides and E and P-selectin ligand activity. Since selectin ligands are dependent on terminal sialic acid (α2,3 N-acetylneuraminic acid) for activity, this approach allowed for analysis of de novo synthesized selectin ligands in the presence of 0.05 mM 4-F-GlcNAc, N-glycan inhibitors, 0.23 mM swainsonine and 0.02 mM tunicamycin, and 1 mM GlcNAc (negative control).

[5] = 30 h following neuraminidase digestion, drug control
[6] = 30 hr after neuraminidase, 0.05 mM 4-F-GlcNAc, 0.23 mM swainsonine, 0.02 mM tunicamycin, 1 mM GlcNAc
[7] = at 2.0 dynes/cm^2, tunicamycin 0.02 mM, swainsonine 0.23 mM, 4-F-GlcNAc 0.05 mM, BAG 2.0 mM, p<0.01
[8] = neuraminidase then 0.1 and 0.5 mM for 30 hrs

## CC(=O)N[C@H]1C(O)O[C@H](CO)[C@@H](O)[C@@H]1O (stereo partly drawn) [GlcNAc, N-acetylglucosamine]
[1]; [5]
  recovery of P-selectin ligand activity: > 80 % recovery
[2]; [5]
  recovery of E-selectin ligand activity: > 80 % recovery
[3]; [5]
  recovery of L-selectin ligand activity: > 80 % recovery
[4]; [6]
  recovery of P-selectin ligand activity of Th1 cells: no effect

## O[C@H]1[C@H]2[C@H](O)CCCN2C[C@H]1O [swainsonine]
[1]
  rolling adhesions on P-selectin chimera: no effect
[2]
  rolling adhesions on E-selectin chimera: no effect
[3]
  rolling adhesions on L-selectin chimera: no effect
[4]
  recovery of P-selectin ligand activity of Th1 cells: no effect

## CC(=O)N[C@H]1C(OC(C)=O)O[C@H](COC(C)=O)[C@@H](F)[C@@H]1OC(C)=O (stereo partly drawn) [4-F-GlcNAc, 2-acetamido-2-deoxy-1,3,6-tri-O-acetyl-4-deoxy-4-fluoro-D-glucopyranose]
[1]; 0.05 mM, p<0.001
  difference in cell rolling frequency on P-selectin chimera vs PBS recovery: statistically significant
[1]; [7]
  rolling adhesions on P-selectin chimera: significant reductions
[1]; [8]
  CLA+ T-cell tethering and rolling mediated by P-selectin: completely abolished
[2]
  E-selectin ligand activity compared with protease treatment: did not reduce E-selectin ligand activity below that of protease-treatment
[2]; 0.05 mM, p<0.001
  difference in cell rolling frequency on E-selectin chimera vs PBS recovery: statistically significant
[2]; [7]
  rolling adhesions on E-selectin chimera: significant reductions
[2]; [8]
  CLA+ T-cell tethering and rolling mediated by E-selectin: completely abolished
[3]; [7]
  rolling adhesions on L-selectin chimera: significant reductions
[4]; [6]
  recovery of P-selectin ligand activity of Th1 cells: completely inhibited

## tunicamycin
[1]
  rolling adhesions on P-selectin chimera: significant reductions
[2]
  rolling adhesions on E-selectin chimera: significant reductions
[3]
  rolling adhesions on L-selectin chimera: significant reductions
[4]
  recovery of P-selectin ligand activity of Th1 cells: completely inhibited
